Patent US11179399B2, “6-heterocyclyl-4-morpholin-4-ylpyridine-2-one compounds useful for the treatment of cancer and diabetes” (Sprint Bioscience AB, priority 2016, dated 2021)

Columns and labels:
[1] = test system: autophagy in HOS cells (GFP-LC3); test: High content screening autophagy assay (GFP-LC3 foci); type: cell-based, Human; conditions: Homo sapiens, HOS, 6 h, HOS cells with GFP-LC3, autophagy activated by KU-0063794 500 nM with Bafilomycin A1 5 nM, foci area per cell, read-out: Median IC50 (uM) Cellular assay
Experimental: Human osteosarcoma cells (HOS) stably expressing a Green Fluorescent Protein (GFP) tagged LC3 (GFP-LC3) were used to determine the inhibitory effect on autophagy of proprietary compounds. For that purpose, autophagy was activated by using the mTOR inhibitor KU-0063794 at 500 nM in the presence of Bafilomycin A1 (Sigma-Aldrich) at 5 nM. Shortly, cells were plated overnight in clear bottom 96-well plates in DMEM-High Modified media (Hi-Clone Cat #SH30285.01). At the start of the experiment, the media was removed and replaced with fresh media containing the mTOR inhibitor, Bafilomycin A1 and the vehicle or a test compound as indicated. After 6 hours the media was removed, cells were washed twice with ice-cold phosphate buffered saline (PBS) and fixed with 4% paraformaldehyde for 20 minutes at room temperature. Then the cells were washed twice with ice-cold PBS before adding Hoechst 33342 at 1 μg/ml in PBS for nuclear staining. After incubation overnight at 4° C., cells were washed once with PBS to remove the excess of dye and 100 μl of PBS was added to each well. Images were acquired at 20× magnification, 6 images per well, using the ImageXpress automated microscope (Molecular Devices Inc.) and analyzed with MetaXpress software to identify LC3-GFP foci. Foci area per cell values were used to generate dose response curves and IC50 values were calculated using the non-linear fitting analysis in GraphPad Prism software.

Vps34 enzyme = Vps34 enzyme (Homo sapiens (Human), UniProt Q8NEB9); test: Vps34 biochemical assay (Adapta kinase assay); conditions: 20 μM ATP and 200 μM PI:PS in substrate mix, 1 h at room temperature, read-out: Median IC50 uM Adapta
Sequence of Vps34 enzyme (Q8NEB9 whole entry): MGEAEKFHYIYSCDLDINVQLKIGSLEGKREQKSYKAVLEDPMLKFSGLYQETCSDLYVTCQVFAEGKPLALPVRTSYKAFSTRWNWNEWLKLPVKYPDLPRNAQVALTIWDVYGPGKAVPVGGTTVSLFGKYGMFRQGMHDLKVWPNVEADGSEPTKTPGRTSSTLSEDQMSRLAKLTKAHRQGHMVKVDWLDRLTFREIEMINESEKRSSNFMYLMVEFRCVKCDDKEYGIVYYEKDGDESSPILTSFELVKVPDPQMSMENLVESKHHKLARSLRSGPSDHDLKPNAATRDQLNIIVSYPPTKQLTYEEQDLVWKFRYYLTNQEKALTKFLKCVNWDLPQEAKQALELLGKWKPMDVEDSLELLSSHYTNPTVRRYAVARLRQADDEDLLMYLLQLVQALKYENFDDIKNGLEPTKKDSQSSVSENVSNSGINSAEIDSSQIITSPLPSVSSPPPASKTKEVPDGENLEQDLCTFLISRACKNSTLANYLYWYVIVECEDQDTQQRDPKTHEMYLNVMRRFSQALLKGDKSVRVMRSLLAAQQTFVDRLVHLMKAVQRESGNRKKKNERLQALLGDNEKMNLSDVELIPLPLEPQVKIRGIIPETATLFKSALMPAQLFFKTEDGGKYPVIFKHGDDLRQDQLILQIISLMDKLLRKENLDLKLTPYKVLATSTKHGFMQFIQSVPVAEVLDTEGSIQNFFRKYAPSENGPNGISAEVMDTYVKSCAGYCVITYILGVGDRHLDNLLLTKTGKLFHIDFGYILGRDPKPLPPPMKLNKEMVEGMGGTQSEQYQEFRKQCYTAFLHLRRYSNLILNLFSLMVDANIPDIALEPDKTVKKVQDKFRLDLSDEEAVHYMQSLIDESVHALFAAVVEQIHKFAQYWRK
Experimental: Dilution series of compounds of the invention were prepared in DMSO at 100 times the final assay concentration (n1=n0/3 in 10 points). The compounds were further diluted to 4 times the assay concentration in assay buffer (Life technologies buffer Q, PV5125, diluted 5 times supplemented with 2 mM DTT and 2 mM MnCl2). 2.5 μl of the diluted compounds were added to a 384 well assay plate followed by 2.5 μl of 16.5 nM Vps34 enzyme (Life technologies, PV5126). Enzyme and compounds were pre-incubated at rt for 15 min. Then 5 μl of substrate mix containing 20 μM ATP (Life technologies, PV3227) and 200 μM PI:PS substrate (Life technologies, PV5122) in assay buffer was added to the wells containing compound and enzyme. Mixing was performed by pipetting several times. The reaction was incubated at room temperature for 1 h. Then 5 μl stop-detection mix, prepared as described in the Adapta kinase assay kit instructions (Life technologies, PV5099) containing Adapta Eu-anti-ADP antibody (2.3 nM), Alexa Fluor 647 ADP tracer (9 nM) and EDTA (30 mM) in TR-FRET buffer, was added to quench the reaction. Mixing was performed by pipetting several times. The assay plate was then incubated at room temperature for 30 min and read with Artemis micro plate reader. Percent inhibition of the compounds as compared to DMSO treated control samples was calculated. By the use of Dotmatics software compound concentration versus percent inhibition was fitted to generate IC50 values.

Compound | IC50 [1] | IC50 (Vps34 enzyme)
O=c1cc(N2CCOCC2)cc(N2CCCC2c2ccccc2)[nH]1 (centres unmarked) [Example 1, 4-morpholino-6-(2-phenylpyrrolidin-1-yl)-1H-pyridin-2-one] | 5 µM | 0.05 µM
O=c1cc(N2CCOCC2)cc(N2CCC[C@H]2c2ccccc2)[nH]1 [Example 3, 4-morpholino-6-[(2S)-2-phenylpyrrolidin-1-yl]-1H-pyridin-2-one] | 13 µM | 0.2 µM
O=c1cc(N2CCOCC2)cc(N2CCC[C@@H]2c2ccccc2)[nH]1 [Example 4, 4-morpholino-6-[(2R)-2-phenylpyrrolidin-1-yl]-1H-pyridin-2-one] | 9 µM | 0.05 µM
CC1COCCN1c1cc(C2=CCOCC2)[nH]c(=O)c1 (centres unmarked) [Example 5, 6-(3,6-dihydro-2H-pyran-4-yl)-4-(3-methylmorpholin-4-yl)-1H-pyridin-2-one] | 15 µM | 0.2 µM
CC1COCCN1c1cc(C2CCOCC2)[nH]c(=O)c1 (centres unmarked) [Example 6, 4-(3-methylmorpholin-4-yl)-6-tetrahydropyran-4-yl-1H-pyridin-2-one] | 5 µM | 0.2 µM
COc1cccc(C2CCCN2c2cc(N3CCOCC3C)cc(=O)[nH]2)c1 (centres unmarked) [Example 7, 6-[2-(3-methoxyphenyl)pyrrolidin-1-yl]-4-(3-methylmorpholin-4-yl)-1H-pyridin-2-one] | 0.5 µM | 0.004 µM
CC1COCCN1c1cc(N2CCCC2c2cccnc2)[nH]c(=O)c1 (centres unmarked) [Example 8, 4-(3-methylmorpholin-4-yl)-6-[2-(3-pyridyl)pyrrolidin-1-yl]-1H-pyridin-2-one] | 10 µM | 0.05 µM
CC1COCCN1c1cc(N2CCCC2c2ccccc2)[nH]c(=O)c1 (centres unmarked) [Example 9, 4-(3-methylmorpholin-4-yl)-6-(2-phenylpyrrolidin-1-yl)-1H-pyridin-2-one] | 2 µM | 0.02 µM

Other lines, results leading:

IC50 [1] | IC50 (Vps34 enzyme) | Compound
0.2 µM | 0.001 µM | COc1cccc(C2CCCCN2c2cc(N3CCOC[C@H]3C)cc(=O)[nH]2)c1 (single isomer, unassigned) [Example 44_1]
0.6 µM | 0.008 µM | C[C@@H]1COCCN1c1cc(N2CCCC[C@@H]2c2ccccc2)[nH]c(=O)c1 [Example 30, 4-[(3R)-3-methylmorpholin-4-yl]-6-[(2R)-2-phenyl-1-piperidyl]-1H-pyridin-2-one]
0.3 µM | 0.006 µM | C[C@@H]1COCCN1c1cc(N2CCOCC2C(F)(F)F)[nH]c(=O)c1 (stereo partly drawn) [Example 32, 4-[(3R)-3-methylmorpholin-4-yl]-6-[3-(trifluoromethyl)morpholin-4-yl]-1H-pyridin-2-one]
0.7 µM | 0.009 µM | C[C@@H]1COCCN1c1cc(N2CCC[C@@H]2C(F)(F)F)[nH]c(=O)c1 [Example 35, 4-[(3R)-3-methylmorpholin-4-yl]-6-[(2R)-2-(trifluoromethyl)pyrrolidin-1-yl]-1H-pyridin-2-one]
0.3 µM | 0.02 µM | C[C@@H]1COCCN1c1cc(N2CCCC2c2cccc(C3CC3)c2)[nH]c(=O)c1 (stereo partly drawn) [Example 37, 6-[2-(3-cyclopropylphenyl)pyrrolidin-1-yl]-4-[(3R)-3-methylmorpholin-4-yl]-1H-pyridin-2-one]
0.08 µM | 0.01 µM | C[C@@H]1COCCN1c1cc(N2CCCC[C@@H]2C(F)(F)F)n(C)c(=O)c1 [Example 41, 1-methyl-4-[(3R)-3-methylmorpholin-4-yl]-6-[(2R)-2-(trifluoromethyl)-1-piperidyl]pyridin-2-one]
0.1 µM | 0.003 µM | CC(=O)N1CCN(c2cc(N3CCOC[C@H]3C)cc(=O)[nH]2)C(C(F)(F)F)C1 (stereo partly drawn) [Example 45, 6-[4-acetyl-2-(trifluoromethyl)piperazin-1-yl]-4-[(3R)-3-methylmorpholin-4-yl]-1H-pyridin-2-one]
0.09 µM | 0.006 µM | C[C@@H]1COCCN1c1cc(N2CCN(C(=O)Cc3ccc(F)cc3)CC2C(F)(F)F)[nH]c(=O)c1 (stereo partly drawn) [Example 47, 6-[4-[2-(4-fluorophenyl)acetyl]-2-(trifluoromethyl)piperazin-1-yl]-4-[(3R)-3-methylmorpholin-4-yl]-1H-pyridin-2-one]
